{
  "source": "paper PMC8899577",
  "about": "“Targeting the anti-apoptotic Bcl-2 family proteins: machine learning virtual screening and biological evaluation of new small molecules” (Theranostics, 2022)",
  "key": {"[1]": {"assay": "Pharmacokinetics in mouse plasma (LC-MS/MS)", "assay_type": "in vivo, C57/Bl6 mice", "details": "mice, intraperitoneal; for Tmax: read-out: time of maximum plasma concentration after injection", "description": "184 In vivo experi ments. […]\n186 30% PEG400 (Sigma-Al drich) and 60% NaCl. Mice were sacrificed starting from 15 min to 24 h\n187 after injection. Blood samples were collected b y cardiac puncture, centri fuged at 3,000 g for 10 min\n188 at 4 °C and the obtained plasma was stored at - 80 °C until the analysis performed b y liquid\n189 chromatograph y tandem mass spectrometry (LC –MS/MS). Given that the two compounds were\n190 singularl y administered to the animals for the pharmacokinetic studies, IS20 was used as internal\n191 standard (IS) for IS21 and vice versa. Internal Standard Working Solutions (IS-WS) were prepared\n192 by adding appropriate volumes of the stock solutions to 50 mL of 0.1% formic acid (Fluka, Milan,\n193 Ital y) in methanol:acetonitrile (50:50, v/v, Sigma -Aldrich), in order to reach a final concentration of\n194 50 ng/m L. The solutions were maintained at - 20°C.\n195 LC-MS/MS Analysis. 40 µ L of mouse plasma were mixed with 160 µ L o f IS -WS. The mixture was\n196 vortex mixed for 1 min and centrifuged at 12,000 g for 10 min at 4 °C. The supernatant was\n197 collected and 8 µL were injected into the LC–MS/MS system. The HP LC equipment consists of a\n198 Series 200 Micro-LC Pump and a Series 200 autosampler from Perkin Elm er (Norwalk, CT, USA).\n199 A triple quadrupole mass spectrometer, AB-Sciex API2000 (Toronto, ON, Canada) was used for\n200 detection. The anal yt es were anal yzed using a C18 phase Kinetex column (10 cm x 2.1 mm ID) fro m\n201 Phenomenex (Torran ce, CA, USA) packed with core–shell particles of […]. The mobile phases\n202 were (A) acetonitrile an d (B) water, both containing 0.1% formic acid, at a flow rate of 0.25 mL /\n203 min and were entirel y transferred into the mass spectrometer source. Gradient elution was as\n204 follows: increase of the organic phase from 60 to 80% in 0.8 min, then to 90% in the following 1.2\n205 min and linearly to 100% in 2 min. Finally, after 3.9 min of 100% , the column was led to the\n206 original conditions in 2.5 min to enable equilibration of the column.\n207 Both anal ytes were detected in positive ionization with a capillar y voltage of 5500 V, nebulizer gas\n208 (air) at 40 psi, turbo gas (nitrogen) at 70 psi and 400 °C. The other ion source parameters were set\n209 as follows: curtain gas (CUR) 18 psi; collision gas (CAD) 6 psi; declustering potential (DP) 80 V,\n210 entrance potential (EP) 1 2 V.\n211 The quantitative data were acquired using Multi Reaction Monitoring (MRM) acquisition mode.\n212 Two MRM transitions (precursor ion>fragment ion) were selected for the analytes. For IS20\n214 eV while collision cell exit potential (CXP) was at 19 and 8 V for the two transitions, respectively.\n216 and 51 eV while collision cell exit potential (CXP) was at 21 and 6 V for the two transitions,\n218 The anal ytical method was validated according to FDA guidelines for bioanalytical method\n219 validation. Linearity, recover y, matrix effect, precision, accurac y, limits of detection (LODs) and\n220 lower limits of quantification (LLOQs) were evaluated.\n221 Calibration standard solutions were prepared in blank plasma b y spiking 25 µL of a standard\n222 mixture at appropriate concentration to 40 µL of plasma and by adding 140 µL of methanol:\n223 acetonitrile (50:50, v/v). Calibrators were then treated similarly to the animal samples. The\n224 calibration range was 5 to 7500 ng/ mL and the calibrators were prepared at nine level of\n225 concentration. Precision, recover y and accurac y w ere ev aluated at three lev el of concentrations (25,\n226 […]) and resulted within the acceptable limits.\n227 The limit of detection (LOD) was defined as the lowest concentration with a signal- to-noise (S/N)\n228 ratio greater than 3. The limit of quantification (LOQ) was defined as the concentration at which\n229 both precision (RSD%) and accurac y were less than 20%. LOQ resulted to be 2 ng/ mL while LOD\n231 The validated method was then successfully applied in measuring IS20 and IS21 following drug […]"}, "M14 cells": {"tested_on": "M14 cells", "assay": "Tumor sphere formation assay, M14", "assay_type": "cell-based, Human", "details": "20 µM for 72 h, respect to controls", "description": "For tumor sphere assay, cells were recovered after treatment, counted and seeded in 24-well ultralow attachment surface plates at a density of 5 × 10^2 cells/well and cultured as previously described. After 10 days, spheres were photographed and counted. The percentage of spheres normalized to the number of seeded cells was calculated.\nFigure 4 Analysis of the effect of IS20 and IS21 on cell viability, clonogenic ability and tumor sphere formation in cancer cells. (A) Analysis of cell viability by MTT assay in M14, H1299, HCT116 and MDA-MB-231 cell lines treated with IS20 or IS21 (20 μM for 72 h). The results are reported as “viability of treated cells/viability of control cells (Ctrl)” × 100. (B) Representative images and quantification of clonogenic ability evaluated in M14 and H1299 cells treated with IS20 or IS21 (20 μM for 72 h). Results are reported as percentage of clonogenicity of treated versus control cells. (C) Quantification of tumor sphere formation of M14 and H1299 cells treated with IS20 or IS21 (20 μM for 72 h). Results are reported as percentage of tumor sphere formation of treated versus control. (A-C) Data are reported as mean ± SD of three independent experiments. p-values were calculated between control (Ctrl) and treated cells, ** p < 0.001 and *** p < 0.0001."}, "[2]": {"details": "C57/Bl6, mouse, plasma, ip, 100 mg/kg"}},
  "note": "Like-named read-outs stand apart in the source and are kept apart here.",
  "data": [
    {"compound": "CCCCOc1ccc(C2/C(=C(\\O)c3ccc4c(c3)CC(C)O4)C(=O)C(=O)N2c2nnc(SCc3ccc(Cl)cc3)s2)cc1OCC", "note": "(stereo not drawn) [IS20]", "values": [
      {"measurement": "Tmax", "setting": "[1]; [2]", "result": 16, "unit": "h"},
      {"measurement": "decrease of sphere formation capacity, M14", "setting": "M14 cells", "result": "about 60%"}
    ]},
    {"compound": "CCCCCOc1ccc(C2/C(=C(\\O)c3ccc4c(c3)CC(C)O4)C(=O)C(=O)N2c2nnc(SCc3ccc(Cl)cc3)s2)cc1OCC", "note": "(stereo not drawn) [IS21]", "values": [
      {"measurement": "Cmax", "setting": "[1]; C57/Bl6, mouse, ip, 50 mg/kg, plasma", "result": 4.1, "unit": "µM"},
      {"measurement": "AUC", "setting": "[1]; C57/Bl6, mouse, ip, 50 mg/kg, plasma, read-out: mean AUCtot", "result": 40.9, "unit": "µM·h"},
      {"measurement": "half-life", "setting": "[1]; C57/Bl6, mouse, ip, 50 mg/kg, plasma, read-out: mean t½ (converted)", "result": 11, "unit": "h"},
      {"measurement": "Tmax", "setting": "[1]; C57/Bl6, mouse, plasma, ip, 50 mg/kg", "result": 2, "unit": "h"},
      {"measurement": "Tmax", "setting": "[1]; [2]", "result": 4, "unit": "h"},
      {"measurement": "mean total clearance", "setting": "[1]; 50 mg/kg", "result": 26.3, "unit": "mL/min/kg"},
      {"measurement": "decrease of sphere formation capacity, M14", "setting": "M14 cells", "result": "about 60%"}
    ]}
  ]
}
